Assay [1] deals with G4-enriched genes (5′ETS, BCL2, CMYB, CMYC, KRAS, VEGFA) in SW480 cells. Briefly: qRT-PCR of G4-enriched genes. Format: cell-based, human. To be noted: SW480, CX5461 10 µM for 6 h. In general terms: Real-time PCR tracks product formation cycle by cycle.
Protocol: Total cellular RNA was isolated from different experimental group cells using Trizol Reagent (15596, Invitrogen, Waltham, MA, USA). Reverse transcription was conducted using RevertAid First Strand cDNA Synthesis Kit (K1622, Thermo Scientific, MA, USA) according to manufacturer’s protocol with random primers. Quantitative PCR was performed with SYBR Green (4309155, Thermo Scientific, MA, USA) on 7900HT Fast Real-time PCR System (Applied Biosystems). Target mRNA levels were normalized to actin (ΔCt), and fold change was determined using the 2^−ΔΔCt method. Experiments were conducted in triplicate.
In this context, we aimed to analyze whether GA affects the transcription of G4-enriched genes by qRT-PCR. In the case of ribosomal DNA, we measured the short-lived 5′ external transcribed spacer (5′ETS) of the pre-RNA, whichreflects the ribosomal RNA synthesis rate [19].
The subject of assay [2] is G4 structures in SW480 cells. Briefly: BG4 immunofluorescence (G4 stabilization in cells). In kind it is cell-based, human. To be noted: SW480, CX5461 10 µM for 6 h, positive control.
Protocol: Cells were seeded on 13 mm circular coverslips and placed in 24-well plates. After exposure to different experimental conditions, fixation was performed with 4% (v/v) paraformaldehyde (P6148, Merck, Darmstadt, Germany) for 10 min at room temperature (RT), permeabilization with 0.1% (v/v) Triton-X100 (T8787, Merck, Darmstadt, Germany) for 10 min and blocking with 10% bovine serum albumin (A7906, Merck, Darmstadt, Germany) containing 0.5% (v/v) Triton-X100 for 30 min at RT. Primary antibodies were incubated for 1 h at RT and secondary antibodies for 30 min at 4 °C in darkness. Finally, all coverslips were mounted onto slides (J2800AMNZ, Thermo scientific, Waltham, MA, USA), including DAPI (4′,6-diamidino-2-phenylindole) for nuclear counterstain. Images were acquired on a Confocal Zeiss LSM 710 inverted microscope with a 63× immersion objective. In a different manner, BG4 immunofluorescence was conducted as previously described [11]. BG4 mean nuclear fluorescence intensity was quantified using Fiji software (N > 250).
The test system of the next assay is γH2AX in SW480 cells. Briefly: Western blot of γH2AX (DNA damage). In kind it is cell-based, human. To be noted: SW480, CX5461 10 µM for 6 h.
The test system of the next assay is CRL1790 cells. Kind of assay: Resazurin cytotoxic assay, non-tumoral CRL1790. In kind it is cell-based. To be noted: Homo sapiens, Epithelial cell, CRL1790 non-tumoral colon epithelial cells, 48 h, mean ± SD. As for the experimental part:
(§1) CRL1790, SW480 and SW620 cell lines were purchased from American Type Culture Collection (ATCC). Cells were cultured at 37 °C with 5% CO2 atmosphere in medium supplemented with 10% fetal bovine serum (10270106, Gibco, Waltham, MA, USA), 10 mg/mL penicillin, 10 mg/mL streptomycin, […] amphotericin, and 0.03% L-Glutamine as recommended by the ATCC. MEM medium (M5650, Merck, Darmstadt, Germany) was used for non-tumoral CRL1790, and RPMI 1640 medium (L0501-500, Biowest, Nuaillé, France) was used for both tumoral SW480 and SW620 cell lines.
(§2) Cytotoxic activity was screened using Resazurin Fluorimetric Assay (R7017, Merck, Darmstadt, Germany), according to the manufacturer’s protocol. Cells seeded into 96-well plates (8 × 10^3 cells/well) were treated for 48 h with phenolic compounds at increasing concentrations from 2 × 10^−5 µM to 100 µM. Negative control with vehicle DMSO was included. Fluorescence was determined using Nanoquant Infinite M200 Pro multi-plate reader (Tecan). Half-maximal inhibitory concentration (IC50) values were determined in triplicate by non-linear regression with Graphpad (Prism).
(§3) Natural products such as phenolic compounds have recently attracted significant attention for their anticancer properties. […] We used three different cell lines to mimic CRC progression. In particular, CRL1790 are colon epithelial cells simulating the non-tumoral stage. In addition, SW480 is Dukes’ type B colorectal adenocarcinoma cells representing the primary tumor. Finally, SW620 constitutes Dukes’ type C colorectal adenocarcinoma derived from metastasic site cells to mimic the most aggressive metastasic stage. […] Cytotoxic potency upon 48 h treatment with phenolic compounds was examined by determination of half-maximal inhibitory concentration (IC50) values using the Resazurin method (Table 1). Only GA inhibited cell growth in SW480 and SW620 at clinically-relevant concentrations (IC50 values lower than 30 µM).
(The colour change of resazurin is a common sign of viable cells or microbes.)

For another assay, the system named is SW480 cells. Briefly: Resazurin cytotoxic assay, tumoral SW480. Format: cell-based, human. To be noted: Homo sapiens, SW480, 48 h, SW480 primary tumor cells, mean ± SD. How it is done: as §1, §2, §3
Another assay has as its system SW620 cells. Briefly: Resazurin cytotoxic assay, metastatic SW620. To be noted: Homo sapiens, SW-620, 48 h, mean ± SD. In kind it is cell-based, human. As for the experimental part: as §1, §2, §3

For orientation: IC50 means the concentration that gives 50% inhibition.

Each structure is given as a SMILES string.

Description for γH2AX in SW480 cells: Protein extract from different experimental conditions was extracted using RIPA lysis buffer containing 1% PMSF (P7626, Merck, Darmstadt, Germany), 1% protease inhibitor cocktail (PIC) (P8340, Merck, Darmstadt, Germany), and 1% sodium orthovanadate (S6508, Merck, Darmstadt, Germany). Quantification of protein levels was achieved by Bradford method following manufacturer’s protocol (500-0006, BioRad, Hercules, CA, USA). Protein content was loaded on 12% SDS-polyacrylamide gel (1610148, BioRad, Hercules, CA, USA) for electrophoresis and wet transferred to nitrocellulose membranes (66485, Pall corporation, New York, NY, USA). Membranes were blocked with 5% semi-skimmed milk and incubated overnight at 4 °C with antibodies for γH2AX and actin as housekeeping. Then, membranes were incubated with horseradish peroxidase-labeled antibodies for 1 h at RT. After luminal solution (1705060, BioRad, Hercules, CA, USA) incubation, chemiluminiscence signals were measured using Image Quant LAS 4000 (GE Healthcare Life Sciences). […] Protein levels were quantified by ImageJ.
Then, we investigated DNA damage response because the induction of double-strand breaks is a well-known G4s stabilization associated effect [20]. To this end, we measured the phosphorylation of histone H2AX on Ser-139 (γH2AX), a DNA damage marker, by Western Blot.

As for `Cc1cnc(CNC(=O)c2c(=O)c3ccc(N4CCCN(C)CC4)nc3n3c2sc2ccccc23)cn1` [CX5461], the “transcription of G4-enriched genes” value in assay [1] is reported as “influenced the expression levels of some of these genes”. For the same compound, the “nuclear BG4 signal” value in assay [2] is recorded as “A similar effect was observed”. In the assay with γH2AX in SW480 cells, the “DNA damage (γH2AX protein levels)” value is “significantly induced DNA damage”.

For the compound `OCCc1ccc(O)c(O)c1` [Hydroxytyrosol, hydroxytyrosol], the IC50 was over 100 µM with CRL1790 cells, over 100 µM with SW480 cells and 71.9 ± 3.52 µM in the assay with SW620 cells.

As to `OC[C@H]1O[C@@H](Oc2cc(O)cc(/C=C/c3ccc(O)cc3)c2)[C@H](O)[C@@H](O)[C@@H]1O` [Piceid, piceid], the IC50 in the assay on CRL1790 cells, with SW480 cells and with SW620 cells was over 100 µM throughout.

In the case of `Oc1ccc(/C=C/c2cc(O)cc(O)c2)cc1` [Resveratrol, resveratrol], the IC50 with CRL1790 cells, in the assay on SW480 cells and in the assay with SW620 cells was over 100 µM throughout.

Regarding `OCCc1ccc(O)cc1` [Tyrosol, tyrosol], the IC50 in the assay with CRL1790 cells, in the assay with SW480 cells and in the assay on SW620 cells was over 100 µM throughout.

Source of the values: paper PMC9179882 (Cancers, 2022).
